Data on 5 compounds can be found in patent US4020150A (priority 1974, dated 1977).

The subject of data set [1] is Walker tumor. The following applies: rat, in vivo; cited from earlier work.
In data set [2] the test system is Walker tumor. The following applies: cited from earlier work.
The conditions of data set [3]: cited from earlier work.
Data set [4] has as its system burn wounds. To be noted: burn therapy; cited from earlier work.
For data set [5], the system named is P. berghei. To be noted: high doses of PABA, protocol of Rollo.
Data set [6] concerns tumors. To be noted: by itself; cited from earlier work.
For data set [7] the following is noted: in water; cited from earlier work.
For data set [8], the system named is Yoshidia sarcoma and other tumors. To be noted: Connors et al.; cited from earlier work.

Turning to `N[C@@H](Cc1ccc(N(CCCl)CCCl)cc1)C(=O)O` [melphalan], the “ratio of concentration between the Walker tumor and the liver” value in data set [1] is reported as 1:5. The “effectiveness against the tumor” value in data set [2] is “very effective against the tumor”.

As for `Nc1ccc(S(=O)(=O)Nc2ncccn2)cc1` [sodium sulfadiazine], in data set [3] (water-soluble), the solubility result is on record as “water-soluble”. In addition, the “reaction with body fluids / consumption” value in data set [4] is “would be used up rapidly and none would be left after a few days”.

Consider `Nc1ccc(S(=O)(=O)Nc2ncccn2)cc1` [sulfadiazine], for which the “solubility of free acid” value in data set [3] (free acid) is given as “insoluble as a free acid”. Moreover, in data set [3] (ionized), the solubility when ionized entry is listed as “very soluble when ionized”. In data set [5], the “inhibition of activity by PABA” value is given as “significantly inhibited by PABA”. Moreover, the anti-tumor activity entry in data set [6] was “not an anti-tumor agent”.

The term pKa denotes the pH at which an ionisable group is half protonated. In the case of `Nc1ccc(S(=O)(=O)Nc2cnccn2)cc1` [sulfapyrazine], the “selective deposition/concentration in Walker tumor” value in data set [1] was “selectively deposited in the tumor regions”. Also, in data set [7], the pKa is listed as 6.0.

Consider `Nc1ccc(S(=O)(=O)Nc2nccs2)cc1` [sulfathiazole], for which the pKa in data set [7] is reported as 7.1. The “selective concentration in other transplanted animal tumors” value in data set [8] is “do not concentrate selectively in these tumors”.
